Assay results taken from patent publication US20240374552A1, “Compositions and Methods for Preventing or Reducing the Risk of Metabolic Syndrome” (priority 2021, published 2024).
In brackets after ≈: the same amount, converted by molar mass.

Assays:
[1] = Acute oral gavage toxicity; assay type: in vivo
[2] = pH 7.2; cited from earlier work

Compound: CC(C)(C)c1cc(C=C(C#N)C#N)cc(C(C)(C)C)c1O [tyrphostin AG17, Tyrphostin AG17]
- LD50 ([1]; C57BL/6, mouse, in vivo): 33.3 mg/kg
- Behavioral alterations ([1]; doses 1.75, 5.5 and 17.5 mg/kg): inhibition in locomotion and piloerection
- Lethal effect ([1]; doses of 1.75, 5.5 and 17.5 mg/kg): no lethal effect observed
- Mortality ([1]; doses of 28, 40 and 55.5 mg/kg): increase in mortality
- Solubility [2]: ~150 µg/mL (≈ 531 µM)
